Experiment [1] addresses T1, rat adrenergic α1B receptor (Rattus norvegicus, UniProt P15823).
T1 construct: rat adrenergic α1B receptor obtained from Wistar Rat liver; from tissue; host or cells: Wistar Rat liver
T1 sequence (P15823 1-515): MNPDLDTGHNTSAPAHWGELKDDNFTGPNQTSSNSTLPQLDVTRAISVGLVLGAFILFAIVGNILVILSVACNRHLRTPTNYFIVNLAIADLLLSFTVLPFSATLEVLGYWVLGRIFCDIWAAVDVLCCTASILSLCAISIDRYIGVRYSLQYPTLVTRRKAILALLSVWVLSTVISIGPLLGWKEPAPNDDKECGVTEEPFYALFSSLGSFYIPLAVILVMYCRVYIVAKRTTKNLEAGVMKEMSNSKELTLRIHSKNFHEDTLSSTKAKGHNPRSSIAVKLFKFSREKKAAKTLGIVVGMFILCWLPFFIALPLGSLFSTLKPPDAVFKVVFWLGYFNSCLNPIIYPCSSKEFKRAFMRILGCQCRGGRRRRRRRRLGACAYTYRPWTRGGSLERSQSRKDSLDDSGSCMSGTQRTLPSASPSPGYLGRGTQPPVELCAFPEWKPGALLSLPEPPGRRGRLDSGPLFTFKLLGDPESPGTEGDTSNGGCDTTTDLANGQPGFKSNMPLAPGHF
In words: Adrenergic α1B radioligand binding ([3H]Prazosin). Set-up: species or system Wistar Rat. The conditions noted are these: compound at 0.1 μM; read-out: Percentage inhibition of ligand binding, Adrenergic (0.1 μM) a1B. As to the method:
To evaluate in radioligand binding assays the activity of compounds of the invention, rat adrenergic α1B receptor obtained from Wistar Rat liver (Garcia-S'ainz, J. et al, Biochem. Biophys. Res. Commun. 186:760, 1992; Michel, A. et al, Br. J. Pharmacol. 98:883, 1989) in a modified Tris-HCl buffer (50 mM Tris-HCl buffer, pH 7.4, 0.5 mM EDTA) was used. Compounds of the invention were incubated with 0.25 nM [^3H]Prazosin for 60 min at 25° C. Non-specific binding was estimated in the presence of 10 μM phentolamine. Receptor proteins were filtered and washed, the filters were then counted to determine [^3H]Prazosin specifically bound. Compounds were screened at 1 μM or lower, using 1% DMSO as vehicle. Biochemical assay results are presented as the percent inhibition of specific binding in Table 3.

Experiment [2] has as its target T2, human recombinant adrenergic α1D receptor (Homo sapiens, UniProt P25100).
T2 construct: expressed in transfected cells; host or cells: human embryonic kidney (HEK-293) cells
T2 sequence (P25100 1-572): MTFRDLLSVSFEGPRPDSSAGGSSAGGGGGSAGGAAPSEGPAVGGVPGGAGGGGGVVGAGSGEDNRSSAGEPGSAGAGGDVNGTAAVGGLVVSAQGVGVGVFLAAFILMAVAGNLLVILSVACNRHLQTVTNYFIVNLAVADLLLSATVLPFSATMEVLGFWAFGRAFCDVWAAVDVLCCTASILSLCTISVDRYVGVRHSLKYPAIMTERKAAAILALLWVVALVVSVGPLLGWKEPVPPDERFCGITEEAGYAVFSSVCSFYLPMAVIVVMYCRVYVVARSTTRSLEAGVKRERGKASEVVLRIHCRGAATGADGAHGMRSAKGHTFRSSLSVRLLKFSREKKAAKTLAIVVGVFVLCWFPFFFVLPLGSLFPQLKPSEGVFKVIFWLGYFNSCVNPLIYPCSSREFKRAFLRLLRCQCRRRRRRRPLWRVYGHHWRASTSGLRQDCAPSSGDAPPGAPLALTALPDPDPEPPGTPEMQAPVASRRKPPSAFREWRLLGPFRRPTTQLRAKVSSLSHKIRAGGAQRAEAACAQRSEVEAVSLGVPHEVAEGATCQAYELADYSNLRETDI
Description: Adrenergic α1D radioligand binding ([3H]Prazosin). Conditions: compound at 0.1 μM; read-out: Percentage inhibition of ligand binding, Adrenergic (0.1 μM) a1D. As for the experimental part:
To evaluate in radioligand binding assays the activity of compounds of the invention, human recombinant adrenergic α1D receptor expressed in human embryonic kidney (HEK-293) cells (Kenny, B. et al, Br. J. Pharmacol. 115(6):981, 1995) in a 50 mM Tris-HCl buffer, pH 7.4, was used. Compounds of invention were incubated with 0.6 nM [^3H]Prazosin for 60 min at 25° C. Non-specific binding was estimated in the presence of 10 μM phentolamine. Receptor proteins were filtered and washed, the filters were then counted to determine [^3H]Prazosin specifically bound. Compounds were screened at 1 μM or lower, using 1% DMSO as vehicle. Biochemical assay results are presented as the percent inhibition of specific binding in Table 3.

The record followed here is patent US20130172320A1, “PYRIDO [4,3-B] INDOLE AND PYRIDO [3,4-B] INDOLE DERIVATIVES AND METHODS OF USE” (priority 2010, published 2013).

The structures appear in SMILES notation.

As to `C#CCC1(C)CN(C)Cc2c1n(C)c1ccc(C)cc21` (stereo not shown) [Compound 47, 2,4,5,8-tetramethyl-4-(prop-2-ynyl)-2,3,4,5-tetrahydro-1H-pyrido[4,3-b]indole], the values for the inhibition at 0.1 µM in experiment [1] and in experiment [2] were 34% and 10%, respectively.
The matching figures for `Cc1ccc2c(c1)c1c(n2C)C(C)(CCc2nc(-c3ccccc3)cs2)CN(C)C1` (stereo not shown) [Compound 48]: 20% and 13%.
